In brackets after ≈: the same amount, converted by molar mass. Where a SMILES comes first, the peptide text is derived from it. [ ]: non-standard residue; d: D form.
Columns and labels:
MDREC 1238 = assay type: cell-based, Escherichia coli
Method in brief: (§1)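 Broth microdilution in MH medium: strains diluted to 2×10^6 CFU were mixed with equal volumes of twofold serial peptide dilutions in MH medium. MIC was taken as the lowest peptide concentration preventing bacterial growth.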

P. aeruginosa = test: microbe, parasite or virus in culture; assay type: cell-based, Pseudomonas aeruginosa
Method in brief: as §1

MDRPA 2003 = assay type: cell-based, Pseudomonas aeruginosa
Method in brief: as §1

MDRAB 12036 = assay type: cell-based, Acinetobacter baumannii
Method in brief: as §1

MDRST 8009 = assay type: cell-based, Salmonella typhimurium; conditions: agent alone
Method in brief: as §1

S. epidermidis = test: microbe, parasite or virus in culture; assay type: cell-based, Staphylococcus epidermidis
Method in brief: as §1

MDREC 1229 = test: MIC of antibiotic during combined treatment with antimicrobial peptide; assay type: cell-based, Escherichia coli
Method in brief: (§2)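 Antibiotic MIC came from antibiotic dilutions added to bacteria (2×10^6 CFU/ml, MH medium) already combined with peptide serially diluted 2:1 from its own MIC. Swapping the roles of the two agents gave the peptide MIC.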

A. baumannii = test: as above; assay type: cell-based, Acinetobacter baumannii; conditions: A. baumannii
Method in brief: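 MIC values for mixed peptide plus antibiotic solutions were measured in MH medium.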

MDRAB 12035 = test: as above; assay type: cell-based, Acinetobacter baumannii
Method in brief: as §2

[1] = peptide treatment concentration 1 μg/ml
[2] = peptide treatment concentration 2 μg/ml
[3] = peptide treatment concentration 4 μg/ml
[4] = peptide treatment concentration 6 μg/ml
[5] = peptide treatment concentration 8 μg/ml
[6] = peptide treatment concentration 16 μg/ml
[7] = peptide treatment concentration 32 μg/ml
[8] = peptide treatment concentration 64 μg/ml
[9] = combined with peptide at 1 μg/ml
[10] = combined with peptide at 2 μg/ml
[11] = combined with peptide at 4 μg/ml
[12] = combined with peptide at 6 μg/ml
[13] = combined with peptide at 8 μg/ml
[14] = combined with peptide at 16 μg/ml
[15] = combined with peptide at 32 μg/ml
[16] = combined with peptide at 64 μg/ml

Q: For CC[C@H](C)[C@H](NC(=O)[C@H](CCCCN)NC(=O)[C@H](Cc1c[nH]c2ccccc12)NC(=O)[C@@H](N)CCCNC(=N)N)C(=O)N[C@@H](Cc1ccccc1)C(=O)N[C@@H](CCCCN)C(=O)N[C@@H](CCCCN)C(=O)N[C@H](C(=O)N[C@H](CCCCN)C(=O)N[C@@H](CCCCN)C(=O)N[C@@H](CC(C)C)C(=O)N[C@@H](CC(C)C)C(=O)N[C@@H](Cc1c[nH]cn1)C(=O)N[C@@H](CCCCN)C(=O)N[C@@H](C)C(=O)N[C@@H](CCCCN)C(=O)N[C@@H](CCCCN)C(=O)N[C@@H](Cc1c[nH]c2ccccc12)C(N)=O)[C@@H](C)CC [PapMA-18, RWK IFK KIk KLL HKA KKW-NH2] (H-RWKIFKKI[dK]KLLHKAKKW-NH2; N-terminus assumed), which “Minimal inhibitory concentration MIC” value (MDREC 1238) is on record?
A: The value was 64 µg/mL (≈ 26.9 µM).

Q: And the “Minimal inhibitory concentration MIC” value (P. aeruginosa)?
A: The value was 32 µg/mL (≈ 13.5 µM).

Q: And the “Minimal inhibitory concentration MIC” value (MDRPA 2003)?
A: Its value is 64 µg/mL (≈ 26.9 µM).

Q: What about the “Minimal inhibitory concentration MIC” value (MDRAB 12036) of the same compound?
A: The value was 32 µg/mL (≈ 13.5 µM).

Q: And the “Minimal inhibitory concentration MIC” value (MDRST 8009)?
A: Its value is 64 µg/mL (≈ 26.9 µM).

Q: And the “Minimal inhibitory concentration MIC” value (S. epidermidis)?
A: Its value is over 128 µg/mL.

Q: And the “Antibiotic MIC, Erythromycin” value (MDREC 1229; [1])?
A: Its value is over 128 µg/mL.

Q: What about the “Antibiotic MIC, Linezolid” value (MDREC 1229; [1]) of the same compound?
A: Its value is over 128 µg/mL.

Q: And the “Antibiotic MIC, Vancomycin” value (MDREC 1229; [1])?
A: Its value is over 128 µg/mL.

Q: What about the “Antibiotic MIC, Erythromycin” value (MDREC 1229; [2]) of the same compound?
A: The value was 32 µg/mL.

Q: And the “Antibiotic MIC, Linezolid” value (MDREC 1229; [2])?
A: The value was over 128 µg/mL.

Q: And the “Antibiotic MIC, Vancomycin” value (MDREC 1229; [2])?
A: The value was over 128 µg/mL.

Q: And the “Antibiotic MIC, Erythromycin” value (MDREC 1229; [3])?
A: Its value is 16 µg/mL.

Q: What about the “Antibiotic MIC, Linezolid” value (MDREC 1229; [3]) of the same compound?
A: Its value is 64 µg/mL.

Q: And the “Antibiotic MIC, Vancomycin” value (MDREC 1229; [3])?
A: Its value is over 128 µg/mL.

Q: And the “Antibiotic MIC, Erythromycin” value (MDREC 1229; [4])?
A: Its value is 4 µg/mL.

Q: What about the “Antibiotic MIC, Linezolid” value (MDREC 1229; [4]) of the same compound?
A: The value was 32 µg/mL.

Q: What about the “Antibiotic MIC, Vancomycin” value (MDREC 1229; [4]) of the same compound?
A: The value was 32 µg/mL.

Q: What about the “Antibiotic MIC, Erythromycin” value (MDREC 1229; [5]) of the same compound?
A: The value was 2 µg/mL.

Q: What about the “Antibiotic MIC, Linezolid” value (MDREC 1229; [5]) of the same compound?
A: Its value is 16 µg/mL.

Q: What about the “Antibiotic MIC, Vancomycin” value (MDREC 1229; [5]) of the same compound?
A: The value was 16 µg/mL.

Q: And the “Antibiotic MIC, Erythromycin” value (MDREC 1229; [6])?
A: The value was 1 µg/mL.

Q: And the “Antibiotic MIC, Linezolid” value (MDREC 1229; [6])?
A: Its value is 8 µg/mL.

Q: What about the “Antibiotic MIC, Vancomycin” value (MDREC 1229; [6]) of the same compound?
A: Its value is 8 µg/mL.

Q: What about the “Antibiotic MIC, Erythromycin” value (MDREC 1229; [7]) of the same compound?
A: Its value is 0.5 µg/mL.

Q: And the “Antibiotic MIC, Linezolid” value (MDREC 1229; [7])?
A: Its value is 4 µg/mL.

Q: And the “Antibiotic MIC, Vancomycin” value (MDREC 1229; [7])?
A: The value was 4 µg/mL.

Q: And the “Antibiotic MIC, Erythromycin” value (MDREC 1229; [8])?
A: The value was 0 µg/mL.

Q: What about the “Antibiotic MIC, Linezolid” value (MDREC 1229; [8]) of the same compound?
A: The value was 0 µg/mL.

Q: And the “Antibiotic MIC, Vancomycin” value (MDREC 1229; [8])?
A: The value was 0 µg/mL.

Q: And the “Antibiotic MIC, Erythromycin” value (A. baumannii; [9])?
A: The value was 32 µg/mL.

Q: And the “Antibiotic MIC, Linezolid” value (A. baumannii; [9])?
A: The value was over 128 µg/mL.

Q: What about the “Antibiotic MIC, Vancomycin” value (A. baumannii; [9]) of the same compound?
A: The value was over 128 µg/mL.

Q: What about the “Antibiotic MIC, Erythromycin” value (A. baumannii; [10]) of the same compound?
A: Its value is 32 µg/mL.

Q: What about the “Antibiotic MIC, Linezolid” value (A. baumannii; [10]) of the same compound?
A: The value was 128 µg/mL.

Q: And the “Antibiotic MIC, Vancomycin” value (A. baumannii; [10])?
A: Its value is over 128 µg/mL.

Q: What about the “Antibiotic MIC, Erythromycin” value (A. baumannii; [11]) of the same compound?
A: The value was 16 µg/mL.

Q: And the “Antibiotic MIC, Linezolid” value (A. baumannii; [11])?
A: The value was 64 µg/mL.

Q: What about the “Antibiotic MIC, Vancomycin” value (A. baumannii; [11]) of the same compound?
A: Its value is 128 µg/mL.

Q: What about the “Antibiotic MIC, Erythromycin” value (A. baumannii; [12]) of the same compound?
A: Its value is 2 µg/mL.

Q: And the “Antibiotic MIC, Linezolid” value (A. baumannii; [12])?
A: Its value is 32 µg/mL.

Q: And the “Antibiotic MIC, Vancomycin” value (A. baumannii; [12])?
A: Its value is 32 µg/mL.

Q: What about the “Antibiotic MIC, Erythromycin” value (A. baumannii; [13]) of the same compound?
A: The value was 1 µg/mL.

Q: And the “Antibiotic MIC, Linezolid” value (A. baumannii; [13])?
A: The value was 16 µg/mL.

Q: What about the “Antibiotic MIC, Vancomycin” value (A. baumannii; [13]) of the same compound?
A: Its value is 16 µg/mL.

Q: And the “Antibiotic MIC, Erythromycin” value (A. baumannii; [14])?
A: The value was 0.5 µg/mL.

Q: What about the “Antibiotic MIC, Linezolid” value (A. baumannii; [14]) of the same compound?
A: Its value is 4 µg/mL.

Q: And the “Antibiotic MIC, Vancomycin” value (A. baumannii; [14])?
A: The value was 16 µg/mL.

Q: What about the “Antibiotic MIC, Erythromycin” value (A. baumannii; [15]) of the same compound?
A: Its value is 0 µg/mL.

Q: And the “Antibiotic MIC, Linezolid” value (A. baumannii; [15])?
A: The value was 0 µg/mL.

Q: What about the “Antibiotic MIC, Vancomycin” value (A. baumannii; [15]) of the same compound?
A: Its value is 0 µg/mL.

Q: And the “Antibiotic MIC, Erythromycin” value (A. baumannii; [16])?
A: Its value is 0 µg/mL.

Q: What about the “Antibiotic MIC, Linezolid” value (A. baumannii; [16]) of the same compound?
A: Its value is 0 µg/mL.

Q: What about the “Antibiotic MIC, Vancomycin” value (A. baumannii; [16]) of the same compound?
A: The value was 0 µg/mL.

Q: What about the “Erythromycin MIC during combined treatment with peptide” value (MDRAB 12035; [1]) of the same compound?
A: The value was 32 µg/mL.

Q: And the “Linezolid MIC during combined treatment with peptide” value (MDRAB 12035; [1])?
A: The value was over 128 µg/mL.

Q: What about the “Vancomycin MIC during combined treatment with peptide” value (MDRAB 12035; [1]) of the same compound?
A: Its value is over 128 µg/mL.

Q: And the “Erythromycin MIC during combined treatment with peptide” value (MDRAB 12035; [2])?
A: The value was 32 µg/mL.

— patent publication US11214594B2, “Antimicrobial peptide having synergistic antibacterial effect with antibiotics on multidrug resistant bacteria, and use thereof” (priority 2016, dated 2022)
